Results taken from US12624034B2, “Non-covalent modifiers of AKT1 and uses thereof” (Terremoto Biosciences, Inc., priority 2023, dated 2026).
Read-outs that look alike come from different tables or passages of the source.

What was measured:
[1] = test system: LAPC4 prostate cancer cells, which express the AKT1 E17K allele; experiment: Antiproliferative effects in LAPC4 cells (CellTiter Glo, 72 h); assay type: cell-based; details: Homo sapiens, LAPC4, 72 h, read-out: LAPC4 proliferation IC50
How it was run: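 LAPC4 prostate cancer cells carrying AKT1 E17K, grown in IMDM with 12% FBS, were seeded at 1,000 cells/well and exposed to compound dilutions for 72 h. Viability was read as intracellular ATP by CellTiter Glo luminescence, and IC50 was fitted with a log(inhibitor) vs. response Hill equation.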

[2] = biological target: T1, AKT1 E17K (Homo sapiens, UniProt P31749, E17K); experiment: Live cell AKT1 E17K target engagement by NanoBRET competitive probe displacement in HEK293 cells; assay type: binding; details: 2 h at 37° C.
T1 construct: expressed in transfected cells; host or cells: HEK293
T1 sequence (P31749 whole entry E17K): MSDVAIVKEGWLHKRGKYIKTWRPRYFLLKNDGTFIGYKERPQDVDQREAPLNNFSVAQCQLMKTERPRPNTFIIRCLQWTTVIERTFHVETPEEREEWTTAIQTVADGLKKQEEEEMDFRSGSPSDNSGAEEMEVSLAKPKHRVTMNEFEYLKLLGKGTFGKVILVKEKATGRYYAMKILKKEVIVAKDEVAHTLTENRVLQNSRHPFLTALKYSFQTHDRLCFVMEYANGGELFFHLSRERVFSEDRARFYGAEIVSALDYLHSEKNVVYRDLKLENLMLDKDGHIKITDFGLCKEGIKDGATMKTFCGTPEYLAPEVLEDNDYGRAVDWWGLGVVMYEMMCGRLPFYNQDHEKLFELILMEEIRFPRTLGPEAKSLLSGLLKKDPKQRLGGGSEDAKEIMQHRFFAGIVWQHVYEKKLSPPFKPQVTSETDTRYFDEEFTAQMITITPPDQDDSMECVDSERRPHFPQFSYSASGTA
How it was run: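 HEK293 cells transiently expressing kinase–NanoLuciferase fusions were treated with serial compound dilutions plus fluorescent ATP-competitive tracer at ~EC50, 2 h at 37 °C. Emission at 460 and 600 nm read after substrate and extracellular luciferase inhibitor; IC50 from Hill fit of E600/E460 BRET ratio.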

[3] = biological target: T2, AKT1 WT (Homo sapiens, UniProt P31749); experiment: Live cell AKT1 WT target engagement by NanoBRET competitive probe displacement in HEK293 cells; assay type: binding; details: 2 h at 37° C., read-out: AKT1 WT IC50
T2 construct: expressed in transfected cells; host or cells: HEK293
T2 sequence (P31749 whole entry): as the sequence (P31749 whole entry E17K) above, with K17E counted along it

[4] = biological target: T3, AKT2 (Homo sapiens, UniProt P31751); experiment: Live cell AKT2 target engagement by NanoBRET competitive probe displacement in HEK293 cells; assay type: binding; details: 2 h at 37° C., read-out: AKT2 IC50
T3 construct: expressed in transfected cells; host or cells: HEK293
T3 sequence (P31751 whole entry): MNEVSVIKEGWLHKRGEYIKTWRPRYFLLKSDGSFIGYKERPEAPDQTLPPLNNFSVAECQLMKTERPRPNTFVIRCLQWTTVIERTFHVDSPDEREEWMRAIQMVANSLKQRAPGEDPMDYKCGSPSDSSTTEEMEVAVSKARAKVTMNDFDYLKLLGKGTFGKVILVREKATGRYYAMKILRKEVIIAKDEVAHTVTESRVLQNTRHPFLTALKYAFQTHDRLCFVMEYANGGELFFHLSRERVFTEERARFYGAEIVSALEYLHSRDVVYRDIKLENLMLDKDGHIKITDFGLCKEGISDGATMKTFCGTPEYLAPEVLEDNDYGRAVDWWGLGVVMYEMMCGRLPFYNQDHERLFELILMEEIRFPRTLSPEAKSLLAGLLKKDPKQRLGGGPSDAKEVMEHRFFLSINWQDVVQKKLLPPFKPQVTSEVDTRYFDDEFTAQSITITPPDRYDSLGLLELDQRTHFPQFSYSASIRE

[5] = NanoBRET live cell target engagement, HEK293 cells
[6] = NanoBRET competitive probe displacement, live HEK293 cells

IC50 [1] | IC50 [2, 5] | IC50 [3, 5] | IC50 [4, 5] | IC50 [2, 6] | IC50 [3, 6] | IC50 [4, 6] | SMILES
4810 nM | 897 nM | 40.5 nM | 589 nM | – | – | – | Nc1ncccc1-c1nc2ccc(-n3nccn3)nc2n1-c1ccc2c(c1)CC[C@@H]2NC(=O)c1ccnc2c1CCO2 [Compound 286]
576 nM | 7.43 nM | 2.11 nM | 9.84 nM | – | – | – | COc1cc(C(=O)N[C@H]2CCc3cc(-n4c(-c5cccnc5N)nc5ccc(-n6cccn6)nc54)ccc32)ccn1 [Compound 25, (S)—N-(5-(2-(2-aminopyridin-3-yl)-5-(1H-pyrazol-1-yl)-3H-imidazo[4,5-b]pyridin-3-yl)-2,3-dihydro-1H-inden-1-yl)-2-methoxyisonicotinamide]
740 nM | 10.5 nM | 7.56 nM | 38.1 nM | – | – | – | COc1ccc(C(=O)N[C@H]2CCc3cc(-n4c(-c5cccnc5N)nc5ccc(-n6cccn6)nc54)ccc32)cc1 [Compound 12, (S)—N-(5-(2-(2-aminopyridin-3-yl)-5-(1H-pyrazol-1-yl)-3H-imidazo[4,5-b]pyridin-3-yl)-2,3-dihydro-1H-inden-1-yl)-4-methoxybenzamide]
915 nM | 357 nM | 11.6 nM | 128 nM | – | – | – | Cc1ccc(C(=O)N[C@H]2CCc3cc(-n4c(-c5cccnc5N)nc5ccc(-n6ccc(F)n6)nc54)ccc32)cn1 [Compound 52, (S)—N-(5-(2-(2-aminopyridin-3-yl)-5-(3-fluoro-1H-pyrazol-1-yl)-3H-imidazo[4,5-b]pyridin-3-yl)-2,3-dihydro-1H-inden-1-yl)-6-methylnicotinamide]
3750 nM | > 1000 nM | 19.6 nM | 321 nM | – | – | – | Nc1ncccc1-c1nc2ccc(-n3cccn3)nc2n1-c1ccc2c(c1)CC[C@@H]2NC(=O)c1ccnnc1 [Compound 33, (S)—N-(5-(2-(2-aminopyridin-3-yl)-5-(1H-pyrazol-1-yl)-3H-imidazo[4,5-b]pyridin-3-yl)-2,3-dihydro-1H-inden-1-yl)pyridazine-4-carboxamide]
1140 nM | 82.5 nM | 20.3 nM | 497 nM | – | – | – | Nc1ncccc1-c1nc2ccc(-n3cccn3)nc2n1-c1ccc2c(c1)CC[C@@H]2NC(=O)c1cc(O)c(O)cc1F [Compound 351, N-[(1S)-5-[2-(2-aminopyridin-3-yl)-5-(pyrazol-1-yl)imidazo[4,5-b]pyridin-3-yl]-2,3-dihydro-1H-inden-1-yl]-2-fluoro-4,5-dihydroxybenzamide]
921 nM | 72.6 nM | 4.75 nM | 49.7 nM | – | – | – | Nc1ncccc1-c1nc2ccc(-n3cccn3)nc2n1-c1ccc2c(c1)CC[C@@H]2NC(=O)c1ccc(C(F)F)cc1 [Compound 61, (S)—N-(5-(2-(2-aminopyridin-3-yl)-5-(1H-pyrazol-1-yl)-3H-imidazo[4,5-b]pyridin-3-yl)-2,3-dihydro-1H-inden-1-yl)-4-(difluoromethyl)benzamide]
225 nM | 12.1 nM | 2.53 nM | 6.6 nM | – | – | – | Cn1ncc2cc(C(=O)N[C@H]3CCc4cc(-n5c(-c6cccnc6N)nc6ccc(-n7cccn7)nc65)ccc43)cnc21 [Compound 28, (S)—N-(5-(2-(2-aminopyridin-3-yl)-5-(1H-pyrazol-1-yl)-3H-imidazo[4,5-b]pyridin-3-yl)-2,3-dihydro-1H-inden-1-yl)-1-methyl-1H-pyrazolo[3,4-b]pyridine-5-carboxamide]
692 nM | 64 nM | 4.97 nM | 59.5 nM | – | – | – | Nc1ncccc1-c1nc2ccc(-n3cccn3)nc2n1-c1ccc2c(c1)CC[C@@H]2NC(=O)c1cnc(C(F)F)c(F)c1 [Compound 62, (S)—N-(5-(2-(2-aminopyridin-3-yl)-5-(1H-pyrazol-1-yl)-3H-imidazo[4,5-b]pyridin-3-yl)-2,3-dihydro-1H-inden-1-yl)-6-(difluoromethyl)-5-fluoronicotinamide]
9360 nM | > 1000 nM | 45.4 nM | 2400 nM | – | – | – | Nc1ncccc1-c1nc2ccc(-n3cccn3)nc2n1-c1ccc2c(c1)CC[C@@H]2NC1CCN(C(=O)C2CC2)CC1 [Compound 279]
3710 nM | – | – | – | > 1000 nM | 21.7 nM | 1340 nM | Nc1ncccc1-c1nc2ccc(-n3cccn3)nc2n1-c1ccc2c(c1)CC[C@@H]2NC1CN(C(=O)C2CC2)C1 [Compound 441]
1320 nM | 192 nM | 23.4 nM | 52.8 nM | – | – | – | CCc1coc(C(=O)N[C@H]2CCc3cc(-n4c(-c5cccnc5N)nc5ccc(-n6cccn6)nc54)ccc32)n1 [Compound 57, (S)—N-(5-(2-(2-aminopyridin-3-yl)-5-(1H-pyrazol-1-yl)-3H-imidazo[4,5-b]pyridin-3-yl)-2,3-dihydro-1H-inden-1-yl)-4-ethyloxazole-2-carboxamide]
3000 nM | 259 nM | 16.9 nM | 636 nM | – | – | – | Nc1ncccc1-c1nc2ccc(-n3cccn3)nc2n1-c1ccc2c(c1)CC[C@@H]2n1cc(C2CCC2)nn1 [Compound 287]
6330 nM | 735 nM | 74.4 nM | 2520 nM | – | – | – | Nc1ncccc1-c1nc2ccc(-n3ccc(F)n3)nc2n1-c1ccc2c(c1)CC[C@@H]2NC1CCN(c2ccccn2)CC1 [Compound 367]
5270 nM | – | – | – | > 1000 nM | 24.3 nM | 1750 nM | COc1ccn(-c2ccc3nc(-c4cccnc4N)n(-c4ccc5c(c4)CC[C@@H]5NC4CCN(C(=O)C5CC5)CC4)c3n2)n1 [Compound 440]
1750 nM | 143 nM | 14.2 nM | 98.6 nM | – | – | – | Nc1ncccc1-c1nc2ccc(-n3cccn3)nc2n1-c1ccc2c(c1)CC[C@@H]2NC(=O)c1ccncc1 [Compound 35, N-[(1S)-5-[2-(2-aminopyridin-3-yl)-5-(pyrazol-1-yl)imidazo[4,5-b]pyridin-3-yl]-2,3-dihydro-1H-inden-1-yl]pyridine-4-carboxamide]
> 10000 nM | > 1000 nM | 390 nM | > 10000 nM | – | – | – | COC1(C(F)F)CC(C(=O)N[C@H]2CCc3cc(-n4c(-c5cccnc5N)nc5ccc(-n6cccn6)nc54)ccc32)C1 (single isomer, unassigned) [Compound 10]
> 7500 nM | > 856 nM | 34.3 nM | 1790 nM | – | – | – | Nc1ncccc1-c1nc2ccc(-n3cccn3)nc2n1-c1ccc2c(c1)CC(F)[C@@H]2NC1CCN(C(=O)C2CC2)CC1 (single isomer, unassigned) [Compound 385, 3-{3-[(1R,2*)-1-[(1-cyclopropanecarbonylpiperidin-4-yl)amino]-2-fluoro-2,3-dihydro-1H-inden-5-yl]-5-(pyrazol-1-yl)imidazo[4,5-b]pyridin-2-yl}pyridin-2-amine]
285 nM | – | – | – | 23.6 nM | 5.37 nM | 351 nM | Nc1ncccc1-c1nc2ccc(-n3nccn3)nc2n1-c1ccc2c(c1)CC[C@@H]2NC(=O)c1ccc(C2CC2)nc1 [Compound 491]
> 10000 nM | > 1000 nM | 483 nM | 8140 nM | – | – | – | Nc1ncccc1-c1nc2ccc(-n3cccn3)nc2n1-c1ccc2c(c1)CC[C@@H]2NC1CCN(C(=O)c2ccncc2)CC1 [Compound 360]
2550 nM | 274 nM | 63.5 nM | 1330 nM | – | – | – | Nc1ncccc1-c1nc2ccc(-n3cccn3)nc2n1-c1ccc2c(c1)CC[C@@H]2NC(=O)c1cnc(C(F)F)cn1 [Compound 322]
264 nM | 10.6 nM | 2.75 nM | 2.91 nM | – | – | – | COc1cc(C(=O)N[C@H]2CCc3cc(-n4c(-c5cccnc5N)nc5ccc(-n6cccn6)nc54)ccc32)cc(OC)n1 [Compound 283]
1120 nM | 142 nM | 18.1 nM | 118 nM | – | – | – | Nc1ncccc1-c1nc2ccc(-n3ccc(F)n3)nc2n1-c1ccc2c(c1)CC[C@@H]2NC(=O)c1ccc(C(F)F)nc1 [Compound 53, (S)—N-(5-(2-(2-aminopyridin-3-yl)-5-(3-fluoro-1H-pyrazol-1-yl)-3H-imidazo[4,5-b]pyridin-3-yl)-2,3-dihydro-1H-inden-1-yl)-6-(difluoromethyl)nicotinamide]
4410 nM | – | – | – | > 1000 nM | 14.3 nM | 665 nM | COCCOc1ccn(-c2ccc3nc(-c4cccnc4N)n(-c4ccc5c(c4)CC[C@@H]5NC4CCN(C(=O)C5CC5)CC4)c3n2)n1 [Compound 504]
970 nM | 73.9 nM | 2.57 nM | 12.6 nM | – | – | – | CN(C)c1cc(C(=O)N[C@H]2CCc3cc(-n4c(-c5cccnc5N)nc5ccc(-n6cccn6)nc54)ccc32)ccn1 [Compound 63, (S)—N-(5-(2-(2-aminopyridin-3-yl)-5-(1H-pyrazol-1-yl)-3H-imidazo[4,5-b]pyridin-3-yl)-2,3-dihydro-1H-inden-1-yl)-2-(dimethylamino)isonicotinamide]
1310 nM | 84.2 nM | 5.86 nM | 68.9 nM | – | – | – | Nc1ncccc1-c1nc2ccc(-n3cccn3)nc2n1-c1ccc2c(c1)CC[C@@H]2NC(=O)c1ccnc2occc12 [Compound 282]
